# Assay results: US20160102058A1, “FLUORO-PERHEXILINE COMPOUNDS AND THEIR THERAPEUTIC USE” (THE UNIVERSITY COURT OF THE UNIVERSITY OF ABERDEEN, priority 2013, published 2016)
# How the values were obtained:
# [1] = Human liver microsomal (HLM) stability assay; type: in vitro ADME; details: for microsomal CLint at 3 μM / half-life at 3 μM: both sexes, pH 7.4, human liver microsomes, 3 μM test compound; for microsomal CLint at 3 μM: read-out: CLint (μL/min/mg protein) HLM; for half-life at 3 μM: read-out: T½ (min) HLM; for metabolic stability compared with perhexiline (in words): human and rat liver microsomes, versus perhexiline
# Description: The metabolic stability of fluoroperhexiline derivatives was measured by determination of the rate of compound disappearance when incubated in the presence of both human and rat liver microsomes. Liver microsomes are prepared from the endoplasmic reticulum of hepatocytes and are the primary source of the most important enzymes (cytochrome P450) involved in drug metabolism. Study of drug stability in the presence of liver microsomes is accepted as a valuable model permitting rapid prediction of in vivo drug stability.
# Human and rat liver microsomes were obtained from a commercial source. Test compounds (3 μM) were incubated with pooled liver microsomes (male and female). Samples were incubated for a 45 minute period and removed at 5 time points and test compounds were analysed by LC-MS/MS.
# Microsomes (final protein concentration 0.5 mg/mL), 0.1 M phosphate buffer pH 7.4, and test compound (final concentration 3 μM; diluted from 10 mM stock solution to give a final DMSO concentration of 0.25%) were incubated at 37° C. prior to the addition of NADPH (final concentration 1 mM) to initiate the reaction. The final incubation volume was 25 μL. A control incubation was included for each compound tested, where 0.1 M phosphate buffer pH 7.4 was added instead of NADPH. The control compounds testosterone and 7-hydroxycoumarin were included in each experiment and all incubations were performed singularly for each compound.
# Each compound was incubated for 0, 5, 15, 30, and 45 minutes. The control (minus NADPH) was incubated for 45 minutes only. The reactions were stopped by the addition of 50 μL methanol containing internal standard at the appropriate time points. The incubation plates were centrifuged at 2500 rpm for 20 minutes at 4° C. to precipitate the protein.
# Following protein precipitation, the sample supernatants were combined in cassettes of up to 4 compounds and analysed using standard LC-MS/MS conditions.
# From a plot of the natural logarithm of the peak area ratio (i.e., the ratio of compound peak area:internal standard peak area) against time, the gradient of the line was determined. Subsequently, half-life and intrinsic clearance were calculated using the equations below:
# Eliminated Rate Constant (k)=(−Gradient).
# Half-Life (t1/2) (min)=0.063/k.
# Intrinsic Clearance (CLint) […]=(V×0.693)/t1/2. • wherein V=Incubation Volume (μL/mg microsomal protein).
# CYP2D6 = target: T1, CYP2D6 (Homo sapiens, UniProt P10635); experiment: Cytochrome P450 2D6 reaction phenotyping (Bactosomes); type: in vitro ADME; details: for stability towards CYP2D6 compared with perhexiline (in words): versus perhexiline; for half-life at 5 μM: human, pH 7.4, read-out: T½
# T1 construct: purchased Cypex Ltd; host or cells: bacterial membranes (Bactosomes)
# Description: The stability of fluoroperhexiline derivatives towards CYP2D6-mediated metabolism was measured by determination of the rate of compound disappearance when incubated in the presence CYP2D6 recombinant isoform expression systems (Bactosomes™). The percentage of parent compound remaining at each time point (following correction for any loss in the incubations with the control bactosomes) is calculated. cDNA expressed human CYP450 enzyme preparations co-expressed with human NADPH cytochrome P450 reductase (Bactosomes™) are supplied by Cypex Ltd. Bactosomes™ are stored at −80° C. prior to use. […] Incubations are also performed using control bactosomes (no P450 enzymes present) to reveal any non-enzymatic degradation. The final incubation volume is 25 μL. A compound known to be metabolised specifically by CYP2D6 isoform is used as a control compound. Each compound is incubated singly for 0, 5, 15, 30 and 45 min with each isoform. The reactions are stopped by the addition of 50 μL methanol containing internal standard at the appropriate time points. The incubation plates are centrifuged at 2500 rpm for 20 min at 4° C. to precipitate the protein. Following protein precipitation, the sample supernatants are combined in cassettes of up to four compounds and analysed using Cyprotex generic LC-MS/MS conditions. The natural logarithm of the peak area ratio (which has been corrected for any loss in the incubations with the control bactosomes) is plotted against time and the gradient of the line determined. Elimination Rate Constant (k)=(−Gradient).
# [2] = recombinant CYP2D6 Bactosomes, 5 μM test compound
# T1 sequence (P10635 whole entry): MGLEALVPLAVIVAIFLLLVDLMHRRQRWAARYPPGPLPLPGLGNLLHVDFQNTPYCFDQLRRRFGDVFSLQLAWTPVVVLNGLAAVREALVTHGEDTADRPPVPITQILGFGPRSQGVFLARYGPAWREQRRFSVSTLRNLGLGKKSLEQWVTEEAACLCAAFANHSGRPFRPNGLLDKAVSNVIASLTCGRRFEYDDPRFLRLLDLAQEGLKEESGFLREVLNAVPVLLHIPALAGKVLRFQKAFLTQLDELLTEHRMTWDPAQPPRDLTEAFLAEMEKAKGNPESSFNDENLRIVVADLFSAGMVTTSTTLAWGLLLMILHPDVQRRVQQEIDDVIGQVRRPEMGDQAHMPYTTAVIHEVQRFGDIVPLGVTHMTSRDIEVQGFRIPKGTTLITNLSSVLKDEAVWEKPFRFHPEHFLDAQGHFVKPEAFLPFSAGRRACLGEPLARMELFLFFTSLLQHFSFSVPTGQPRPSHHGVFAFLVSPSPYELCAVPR
Structure (SMILES),microsomal CLint at 3 μM [1] [µL/min/mg],half-life at 3 μM [1] [min],metabolic stability compared with perhexiline (in words) [1],T½ (CYP2D6; [2]) [h],stability towards CYP2D6 compared with perhexiline (in words) (CYP2D6),half-life at 5 μM (CYP2D6; [2]) [h]
"FC1(F)CCC(C(CC2CCCCN2)C2CCCCC2)CC1 (mixture of isomers) [FPER-001, 2-(2-Cyclohexyl-2-(4,4-difluorocyclohexyl)ethyl)piperidine]",2.6,525,substantial increase in metabolic stability,1.73,substantial increase in stability towards CYP2D6,
"FC1CCC(C(CC2CCCCN2)C2CCCCC2)CC1 (mixture of isomers) [FPER-003, 2-(2-Cyclohexyl-2-(4-fluorocyclohexyl)ethyl)piperidine]",21.3,65,substantial decrease in stability,,no increase in stability,0.267
"C1CCC(C(CC2CCCCN2)C2CCCCC2)CC1 (stereo not shown) [Perhexiline, 2-(2,2-dicyclohexylethyl)piperidine]",13.8,100,,,,0.233
